Results reported in patent US20220313658A1, “YAP Inhibition for Wound Healing” (The Board of Trustees of the Leland Stanford Junior …, priority 2019, published 2022).

Legend:
[1] = test system: dorsal excisional wounds; assay: Example 2: excisional wound model, hair regrowth after single Verteporfin injection; format: in vivo, mouse
Text: Adult mice were used for cutaneous wound healing experiments in accordance with well-established protocols. Briefly, mice were anesthetized (2% isofluorane), their dorsal hair was removed with depilatory cream, and the dorsal skin was prepped with alcohol wipes. Next, two 6 mm full-thickness circular wounds were placed through the panniculus carnosus on the dorsum of each animal at the same level, roughly 6 mm below the ears and 4 mm lateral to the midline. The wounds were then stented open by 12 mm diameter silicone rings secured around the wound perimeter with glue and 8 simple interrupted Ethilon 6-0 sutures (Ethicon). For mice receiving mechanotransduction inhibitor, 30 μL of Verteporfin (1 mg/mL) was injected locally into the wound base; PBS was injected into wounds for vehicle controls. Post-operative analgesia was accomplished with buprenorphine 0.05 mg/kg every four hours for three doses, and then as indicated. Dressings were changed every other day under anesthesia. […]

[2] = test system: dorsal excisional wounds; assay: Dorsal excisional wounding, wound base injected with Verteporfin: gross, histology, immunofluorescence; format: in vivo, mouse
Text: P60 En-1^Cre;R26^mTmG, En-1^Cre;Ai6, and En-1^Cre-ERT;Ai6 mice were used for cutaneous wound healing experiments in accordance with well-established protocols. Briefly, mice were anesthetized (2% isofiuorane), their dorsal hair was removed with depilatory cream, and the dorsal skin was prepped with alcohol wipes. Next, two 6 mm full-thickness circular wounds were placed through the panniculus carnosus on the dorsum of each animal at the same level, roughly 6 mm below the ears and 4 mm lateral to the midline. The wounds were then stented open by 12 mm diameter silicone rings secured around the wound perimeter with glue and 8 simple interrupted Ethilon 6-0 sutures (Ethicon). For mice receiving mechanotransduction inhibitor, 30 μL of Verteporfin (1 mg/mL) was injected locally into the wound base; PBS was injected into wounds for vehicle controls. Post-operative analgesia was accomplished with buprenorphine 0.05 mg/kg every four hours for three doses, and then as indicated. Dressings were changed every other day under anesthesia. All wounds were fully re-epithelialized by post-operative day (POD) 14, at which time the wound and surrounding skin (used as unwounded control) were harvested and processed for histology. Induction of En-1^Cre-ERT;Ai6 mice was achieved by 5 consecutive days of intraperitoneal tamoxifen injections (90% corn oil/ethanol v/v; 200 mg/kg body weight) prior to wounding. In all experiments, a minimum of 3 mice with 2 wounds each was used for each treatment group.
Tissues were fixed in 2% paraformaldehyde for 16 h at 4° C. Samples were prepared for embedding by soaking in 30% sucrose in PBS for 1 week at 4° C. Samples were then removed from the sucrose solution, and tissue blocks were prepared by embedding in Tissue Tek U.C.T. (Sakura Finetek) under dry ice to achieve rapid freezing. Frozen blocks were mounted on a Thermo Scientific CryoStar NX70 cryostat, and 10 μm-thick sections were transferred to SuperfrostfPlus adhesive slides (Fisher). For hematoxylin and eosin staining, standard protocols were used with no modifications. For immunofluorescent staining, slides were blocked for 1 hr with Power Block (Biogenex) prior to addition of the following primary antibodies: Abeam ab34710 (anti-collagen type I), Abeam ab28340 (anti-CD26), Invitrogen MA5-15915 (anti-Dlk1), Abeam ab51317 (anti-Scat), Abeam ab5694 (anti-α-SMA), Santa Cruz Biotechnology sc-101199 (anti-YAP), Abeam ab7800 (anti-CK14), and Abeam ab52625 (anti-CK19). Slides were then incubated for 1 h with Alexa Fluor 568 or Alexa Fluor 647-conjugated anti-rabbit, anti-rat, or anti-mouse antibodies (Invitrogen). Finally, slides were mounted in Fluoromount-G mounting solution with DAPI (Thermo Fisher). Brightfield images were acquired with a Leica DMI4000B microscope, while fluorescent images were acquired with a Leica DM6000 SP5 upright confocal microscope.
Given that En-1 activation was associated with adoption of a pro-fibrotic phenotype, and that YAP inhibition prevented En-1 activation in vitro, whether YAP inhibition could also block En-1 activation in vivo to reduce scarring in a mouse wounding model was assessed. Adult En-1^Cre;R26^mTmG mice were wounded, and the POD 0 wounds were treated by injecting the wound base with either PBS (control) or Verteporfin (1 mg/mL). […] Wounds were harvested for gross and histological examination at POD 14, 30, or 90. As expected, control wounds healed in a typical scarring fashion (FIG. 4, A middle row). Even after 90 days, the wound site remained bare, forming a distinct region of pale scar tissue in which no hair regrowth occurred (FIG. 4, A middle row, right image). […] This was a striking result, as a hallmark of adult mammalian (scarring) wound healing is a complete lack of regeneration of secondary appendages (e.g., hair follicles, sweat glands), as exemplified by the bare area that remained following control wound healing. […]

[3] = single local injection immediately following wounding
[4] = 30 days, relative to control wounds
[5] = four treatments (POD 0, 4, 8 and 12)

## verteporfin
[1]; POD 90 (FIG. 13, C)
  Regrowth of dermal appendages: regrowth of hair follicles and other dermal appendages
[1]; [3]
  Hair regrowth: dramatic increase in hair regrowth
  Regeneration of new hair follicles (gross, histology, immunohistochemistry): Regeneration of new hair follicles in Verteporfin-treated wounds was observed
  Wound closure: did not delay wound closure
[2]; 14 days, vs control wounds
  Fibronectin staining: comparatively stronger staining for fibronectin
  col-I staining: substantially reduced col-I staining
[2]; 30 days
  Distribution of Dlk1+ cells: present throughout the dermis
[2]; [4]
  CD26 staining: decreased staining for CD26
  Number of EPFs in wounds: significantly fewer EPFs
[2]; 30 days, vs control wounds
  Chains of YAP+ cells: markedly shorter
[2]; POD 90
  IF staining of appendages for cytokeratins 14 and 19 (hair follicle and sweat gland markers): positive IF staining
  Oil Red O lipid staining (sebaceous glands): positive lipid staining
[2]; POD 90 (FIG. 4, C)
  Regrowth of dermal appendages: regrowth of hair follicles and other dermal appendages
[2]; after 14 days
  Fibroblast lineage content of wounds (ENFs vs EPFs): almost exclusively ENFs
[2]; by 1 and 3 months
  H&E histology: dermal appendage structures: numerous structures morphologically resembling hair follicles or sweat glands
[2]; by 2 weeks
  H&E histology: fibrosis and cellularity: reduced fibrosis and increased cellularity
[2]; [5]
  Hair regrowth: grossly reduced
  Wound closure: delayed
[2]; single dose POD 0, by 30 days
  Hair growth within healed wound: substantial hair growth within the healed wound
[2]; single dose POD 0, by 90 days
  Gross appearance of healed wound: grossly indistinguishable from unwounded skin
[2]; single injection 1 mg/mL into wound base at POD 0, vs PBS
  Wound closure rate: did not significantly affect wound closure rate
[2]; three months of healing
  Number of EPFs in wounds: dramatically reduced numbers of EPFs
  YAP+ cells: rare YAP^+ cells
  α-SMA+ cells: virtually no α-SMA^+ cells
[2]; two doses (POD 0 and 4)
  Wound closure rates, gross appearance and ECM features: comparable to those of wounds treated with single Verteporfin dose
